In general, IC50 refers to the concentration that gives 50% inhibition.

For the test, the system named is MCF7. The experiment in a line: Cytotoxicity against human MCF7 cells assessed as growth inhibition after 96 hrs by MTT assay. It is filed as functional, cell-based. In general terms: Formazan colour is commonly taken as a measure of viable cells.
For `COC1=C(OC)C(=O)c2c(cc3c([nH]c(=O)n3C)c2-c2ccc(OC)cc2)C1=O`, the IC50 was found to be 43.8 µM.
Next, `COC1=C(OC)C(=O)c2c(cc3c(nc(N)n3C)c2-c2ccc(OC)cc2)C1=O`: above 100 µM; `COc1ccc(-c2c3cc(OC)c(OC)cc3cc3c2nc(N)n3C)cc1`: 4.4 µM; `COc1ccc(-c2c3nc(N)n(C)c3cc3cc(OC)c(OC)c(OC)c23)cc1`: 19.5 µM.
With `COc1ccc(-c2c3cc(OCc4ccccc4)c(OC)cc3cc3c2ncn3C)cc1`, the IC50 turned out to be 76.9 µM.
With `COc1ccc(-c2c3cc(OC)c(OC)cc3cc3c2ncn3C)cc1` the figure was 99.8 µM; with `COc1ccc(-c2c3ncn(C)c3cc3cc(OC)c(OC)c(OC)c23)cc1`, above 100 µM; with `COC1=C(OC)C(=O)c2c(cc3c(ncn3C)c2-c2ccc(OC)cc2)C1=O`, 92 µM.
Next, `COc1ccc(-c2c3[nH]c(=O)n(C)c3cc3cc(OC)c(OC)c(OC)c23)cc1`: 91.9 µM; `COc1ccc(-c2c3cc(OC)c(OC)c(OC)c3cc3c2nc(N)n3C)cc1`: 4.94 µM.
Next, `COc1ccc(-c2c3cc(OC)c(OC)c(OC)c3cc3c2ncn3C)cc1`: 68.2 µM; `COc1ccc(-c2c3cc(O)c(OC)cc3cc3c2ncn3C)cc1`: 41.1 µM; `COc1ccc(Cc2nc(N)n(C)c2Cc2ccc(OC)cc2)cc1`: 28.8 µM.
For the compound `COc1ccc(Cc2c(C(OC)c3ccc(OC)cc3)nc(N)n2C)cc1` (stereo unspecified), the IC50 turned out to be 22.7 µM.
Next, `Cn1cc(Cc2ccc3c(c2)OCO3)nc1N`: 23.4 µM.
With `COc1ccc(Cc2nc(NC3=NC(=O)N(C)C3=O)n(C)c2Cc2ccc(OC)cc2)cc1`, the IC50 is 5.08 µM.
Next, `Cn1cnc(Cc2ccc3c(c2)OCO3)c1`: above 100 µM.
Take `CN1C(=O)N=C(Nc2nc(Cc3ccc4c(c3)OCO4)cn2C)C1=O` [CLATHRIDINE]: the IC50 was above 100 µM.
With `COc1ccc(Cn2cc(Cc3ccc(OC)c(OC)c3)nc2/N=C2/NC(=O)N(C)C2=O)cc1` [ISONAAMIDINE E] the figure was 5.78 µM; with `COc1ccc(Cn2cc(Cc3ccc(OC)c(OC)c3)nc2N)cc1` [ISONAAMINE C], 28 µM; with `COc1ccc(-c2c3cc(O)c(OC)cc3cc3c2[nH]c(=N)n3C)cc1` [KEALIININE A], above 100 µM.
